Reference: publication PMC6364417, “Kinase inhibitor library screening identifies synergistic drug combinations effective in sensitive and resistant melanoma cells” (Journal of Experimental & Clinical Cancer Research : CR, 2019)
Read-outs that look alike come from different tables or passages of the source.

How the values were obtained:
[1] = test system: A375 cells; assay: Synergy determination with the Chou-Talalay method (CompuSyn), cell viability 72 h; format: cell-based, human; details: 72 h cell viability, Chou-Talalay / Synergyfinder
Experimental: The Chou-Talalay method to determine possible synergistic effects of selected kinase inhibitor combinations was used as described in [19]. […] Cells were treated with either single inhibitors or combinations thereof at indicated amounts in technical triplicates. The amounts were pre-determined from each inhibitor’s IC50 value and inhibitors were assayed in a defined dilution series and at constant ratio when combined. […] Combination Index (CI) values showing either synergy (< 1) or antagonism (> 1) were calculated with the CompuSyn software (ComboSyn, Inc).

[2] = test system: A375 cells (parental); assay: Dose-response curves and IC50, PrestoBlue cell viability, 72 h; format: cell-based, human; details: read-out: Half-maximal inhibitory concentration value (IC50), Mean
[3] = test system: A375-XP cells (Vemurafenib-resistant); assay: as above; format: cell-based, human; details: n.e. = did not suppress growth below 50% in the tested concentration range, read-out: Half-maximal inhibitory concentration value (IC50), Mean
[4] = test system: A375-GP cells (Dabrafenib-resistant); assay: as above; format: cell-based, human; details: n.e. = did not suppress growth below 50% in the tested concentration range, read-out: Half-maximal inhibitory concentration value (IC50), Mean
[5] = test system: IGR37-XP cells (Vemurafenib-resistant); assay: Kinase inhibitor library screening, PrestoBlue cell viability, 1 or 10 μM, 72 h; details: Homo sapiens, IGR-37, 72 h
[6] = test system: A375-GP cells (Dabrafenib-resistant); assay: as above; details: Homo sapiens, A-375, 72 h
[7] = test system: 501Mel-XP cells (Vemurafenib-resistant); assay: as above; details: Homo sapiens, 72 h
[8] = test system: IGR37-GP cells (Dabrafenib-resistant); assay: as above; details: Homo sapiens, IGR-37, 72 h
[9] = test system: 501Mel-GP cells (Dabrafenib-resistant); assay: as above; details: Homo sapiens, 72 h
[10] = test system: A375-XP cells (Vemurafenib-resistant); assay: as above; details: Homo sapiens, A-375, 72 h
[11] = test system: 501Mel cells (parental); assay: as above; details: Homo sapiens, 72 h
Method in brief: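 Single-point screen at two doses over three days. Parental and BRAF-inhibitor-resistant sublines (XP: Vemurafenib; GP: Dabrafenib) were assessed by PrestoBlue viability, reported relative to untreated cells.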

[12] = test system: A375 cells (parental); assay: as above; details: Homo sapiens, A-375, 72 h
[13] = test system: IGR37 cells (parental); assay: as above; details: Homo sapiens, IGR-37, 72 h
[14] = test system: IGR37-GP cells (Dabrafenib-resistant); assay: Dose-response curves and IC50, PrestoBlue cell viability, 72 h; details: Homo sapiens, 72 h, read-out: Half-maximal inhibitory concentration (IC50)
Experimental: All inhibitors used in this study were purchased from Selleck Chemicals (Houston, USA). They were dissolved in DMSO to a stock concentration of 10 mM according to the manufacturer’s instructions and stored at − 80 °C. […] Cell viability was measured with the PrestoBlue Cell Viability Reagent (ThermoFisher Scientific) on a CLARIOstar Monochromator microplate reader (BMG Labtech). Using the GraphPad Prism v5.04 software, the half-maximal inhibitor concentration values (IC50) were determined from the curve using the nonlinear log (inhibitor) vs response-variable slope (four parameters) equation. […] The IC50’s were determined for 3 biological replicates and are listed with their standard deviations.
Values represent the mean of at least three biological replicates; one representative curve of at least 3 biological replicates is depicted. _XP: cells resistant to Vemurafenib (red), _GP: cells resistant to Dabrafenib (green).

[15] = Homo sapiens, A-375, n.e. = did not suppress growth below 50% in the tested concentration range

For `CN1CC[C@H](c2c(O)cc(O)c3c(=O)cc(-c4ccccc4Cl)oc23)[C@H](O)C1.Cl` [Flavopiridol HCL], the “synergistic effects with the BRAF inhibitors Vemurafenib and/or Dabrafenib (in words)” value [1] was “did not act synergistically”, the IC50 ([2]; n.e. = did not suppress growth below 50% in the tested concentration range) was 112 nM and the IC50 [3] was 136 nM. The IC50 [4] was 123 nM.

For `Cc1cc(C(=O)NOCCO)c(Nc2ccc(I)cc2F)n(C)c1=O` [AZD8330, reference compound], the “synergistic effects with the BRAF inhibitors Vemurafenib and/or Dabrafenib (in words)” value [1] was “synergistic effects at low concentrations”, the IC50 [2, 15] was 1.8 nM and the viability at 1 µM ([5]; read-out: cell viability, IGR37 XP, 1μΜ) was 45.7%. For the same compound, the viability at 10 µM ([5]; read-out: cell viability, IGR37 XP, 10μΜ) was 19%, the viability at 1 µM ([6]; read-out: cell viability, A375 GP, 1μΜ) was 17.9% and the viability at 10 µM ([6]; read-out: cell viability, A375 GP, 10μΜ) was 13.3%. It also gave a viability at 1 µM ([7]; read-out: cell viability, 501Mel XP, 1μΜ) of 69.7%, a viability at 10 µM ([7]; read-out: cell viability, 501Mel XP, 10μΜ) of 56.7% and a viability at 1 µM ([8]; read-out: cell viability, IGR37 GP, 1μΜ) of 57.5%. The viability at 10 µM ([8]; read-out: cell viability, IGR37 GP, 10μΜ) was 52%, the viability at 1 µM ([9]; read-out: cell viability, 501Mel GP, 1μΜ) was 86.3% and the viability at 10 µM ([9]; read-out: cell viability, 501Mel GP, 10μΜ) was 74.6%. The viability at 1 µM ([10]; read-out: cell viability, A375 XP, 1μΜ) was 10.5%, the viability at 10 µM ([10]; read-out: cell viability, A375 XP, 10μΜ) was 12.1% and the viability at 1 µM ([11]; read-out: cell viability, 501Mel Parental, 1μΜ) was 48.9%. For the same compound, the viability at 10 µM ([11]; read-out: cell viability, 501Mel Parental, 10μΜ) was 52.5%, the viability at 1 µM ([12]; read-out: cell viability, A375 Parental, 1μΜ) was 17.3% and the viability at 10 µM ([12]; read-out: cell viability, A375 Parental, 10μΜ) was 17.7%. It also gave a viability at 1 µM ([13]; read-out: cell viability, IGR37 Parental, 1μΜ) of 33%, a viability at 10 µM ([13]; read-out: cell viability, IGR37 Parental, 10μΜ) of 34% and an IC50 ([4]; Homo sapiens) of 3.2 nM.

`CC(=O)Nc1cccc(-n2c(=O)n(C3CC3)c(=O)c3c(Nc4ccc(I)cc4F)n(C)c(=O)c(C)c32)c1` [Trametinib] gave an IC50 [2, 15] of 0.4 nM, an IC50 [14] of 0.7 nM and an IC50 ([3]; Homo sapiens) of 2.4 nM. For the same compound, the IC50 ([4]; Homo sapiens) was 1.2 nM.
